Assay results published in patent publication US5281605A, “Novel xanthine derivatives” (Sandoz Ltd., priority 1986, dated 1994).
Like-named read-outs stand apart in the source and are kept apart here.

Assays:
[1] = Level of activity of R- versus S-isomers in animal models; assay type: in vivo; settings: R-isomers of examples 22 and 24 compared with S-isomers of examples 23 and 25 respectively
[2] = tested on: Isolated guineα-pig trachea; assay: Bronchospasmolytic activity in vitro: isolated guinea-pig trachea (A.1.1); settings: Cavia porcellus
Description: 1.1. Isolated guineα-pig trachea:
(§1) The trachea is excised from freshly sacrificed guineα-pigs and transected in the transverse plane to give rings of tissue of ca. 2 mm. Individual rings are mounted vertically on stainless steel supports, one of which is fixed at the base of an organ bath, the other being attached to a tension transducer. The rings are bathed in modified Tyrode solution at 37° C. and gassed with O2 /CO2 (95:5, v/v). Rings prepared in this manner, preloaded with 1 g, generate spontaneous tone and, after a period of equilibration, relax on addition of spasmolytic drugs. Tension can be enhanced by addition of carbachol (10^-6 M) or histamine (10^-4 M). To ascertain spasmolytic activity, test substances are dissolved in physiological saline and added in increasing quantities to the organ bath at 5 min. intervals to provide a cumulative concentration-effect curve.

[3] = tested on: bombesin-induced bronchospasm; assay: Bronchodilator activity in vivo: inhibition of bombesin-induced bronchospasm (A.2.1); settings: Cavia porcellus, iv; anaesthetised guinea pigs; i.v. at the height of bombesin-induced bronchospasm; read-out: ED50, reversal of bombesin-induced bronchospasm
Description: 2.1. Inhibition of bronchospasm:
Guinea pigs are anaesthetised with pentobarbital (30 mg/kg i.p.) and phenobarbital (100 mg/kg i.p.) and ventilated via a tracheal cannula (10 ml/kg, 1 Hz). Ventilation is monitored either by a pressure transducer measuring air-flow (Konzett-Rossler method), or by a Fleisch flow transducer in line with the inspiratory circuit. When making measurements of flow, coincident pressure changes in the thorax are monitored directly via an intrathoracic trochar, permitting display of differential pressure relative to the trachea. From this information resistance and compliance are calculated at each inspiration.
Intravenous injection of bombesin (ca. […]) as a bolus, induces increased airways resistance Wilich is sustained over a period of several minutes. Capacity of test-substance to reverse response when administered i.v. at the height of bombesin-induced bronchospasm serves as a measure of efficacy in reversing established bronchospasm.

[4] = tested on: Isolated human bronchus; assay: Bronchospasmolytic activity in vitro: isolated human bronchus (A.1.2); settings: read-out: EC50, relaxation of human bronchus rings
Description: as §1
1.2. Isolated human bronchus:
Rings of bronchus (ca. 2 mm depth) are dissected from samples of human lung, resected from patients with lung carcinoma but grossly free of disease. Activity is determined employing the methodology of example A.1.1.

## COCCn1c(N[C@@H](CO)c2ccc(OC)c(OC)c2)nc2c1c(=O)n(C)c(=O)n2C [Example 22]
[1]
  level of activity in animal models: higher level of activity
[2]; basal tone, read-out: EC50, relaxation of tracheal rings, basal tone
  EC50: 860 nM
[2]; in the presence of carbachol (10^-6 M), read-out: EC50, relaxation of tracheal rings, carbachol
  EC50: 19000 nM
[2]; in the presence of histamine (10^-4 M), read-out: EC50, relaxation of tracheal rings, histamine
  EC50: 170 nM
[3]
  ED50: 0.03 to 0.09 mg/kg

## COCCn1c(N[C@@H](COC)c2ccc(OC)c(OC)c2)nc2c1c(=O)n(C)c(=O)n2C [Example 24]
[1]
  level of activity in animal models: higher level of activity

## COCCn1c(NC(CO)c2ccc(OC)c(OC)c2)nc2c1c(=O)n(C)c(=O)n2C (stereo not shown) [Example 7]
[4]
  EC50: 1200 nM
